From patent publication US12171854B2, “Heterocyclic-dithiol click chemistry” (Northeastern University, priority 2017, dated 2024)
Values joined by “and” are separate entries in the source; they are usually repeats but may differ in a detail not shown here. Equal values may be shown once. “Also recorded” adds a separate entry of the source.

How the values were obtained:
WT SOD1 [1] = target: T1, WT SOD1 (Homo sapiens, UniProt P00441); assay: SOD1 cross-linking kinetics, mass spectrometry assay (percent covalent dimer); format: biochemical; conditions: for % of SOD1 cross-linked after 10 min of incubation: 50 μM SOD1, 1000 μM compound (20× excess), pH 7.4, 10 min; for binding to single Cys residues (free Cys111 and Cys6) of SOD1: any sample; for cross-linking of SOD1, result in words (FIG. 13): 1:1 ratio of SOD1 dimer:cross-linker
T1 construct: made in house; host or cells: EGy118ΔSOD1 yeast, vector YEp-351
T1 sequence (P00441 2-154 limits assumed): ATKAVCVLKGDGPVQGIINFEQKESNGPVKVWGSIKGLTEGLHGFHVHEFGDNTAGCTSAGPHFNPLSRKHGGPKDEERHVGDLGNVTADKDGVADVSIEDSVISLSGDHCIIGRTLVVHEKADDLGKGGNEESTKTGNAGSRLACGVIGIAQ
Text: The reaction was monitored using a mass spectrometry (MS) assay that uses a combination of increased voltage within the region of hypersonic gas expansion and brief treatment with 10% formic acid to create exclusively monomeric SOD1 or covalently cross-linked SOD1 dimer. Formic acid also quenches the reaction, transforming any reactive thiolates to unreactive thiols. As a result, if no reaction occurs, only apo SOD1 monomer is detected (FIG. 2, top). […] Given sufficient time for thiolates to be oxidized to sulfenic acid (which occurs on the order of days-weeks), even 1,2-dithiane was expected to cross-link SOD1. After 72 h of incubation with 1,2-dithiane, 11% of SOD1 had formed the expected covalent dimer (FIG. 5).
Human WT SOD1 was expressed in yeast. […] Dilution in HPLC-Grade water to 1 mM cyclic disulfide was performed prior to experimentation. As a negative control, 50 μM human WT SOD1 was incubated at 37° C. with 4% HPLC-grade methanol. At every time point, 1 μL of each sample was removed from their respective reaction vial for analysis. Samples were briefly (˜30 seconds) incubated at room temperature with 10% formic acid to remove metals from SOD1 and quench cross-linking reaction prior to mass spectrometry analysis. Samples were then diluted to 1 μM SOD1 in 50:50 acetonitrile:water, 0.1% FA and analyzed by direct infusion into a Bruker SolariX XR FT-ICR mass spectrometer. The percent dimer formation was calculated by comparing the relative dimer (31,808 Da) and monomer (15,844 Da) MaxEnt deconvoluted peak heights (Dimer/(Dimer+Monomer)). Identical methods were used in the kinetics of α-lipoic acid and β-lipoic acid. Kinetics of 1,2-dithiepane vs. 1,2-dithiepane-1-oxide were performed at a 1:1 ratio of SOD1 dimer:cross-linker.

SOD1 in Hep G2 cells = target: T2, SOD1 in Hep G2 cells (Homo sapiens, UniProt P00441); assay: SOD1 cross-linking in Hep G2 cells, western blot; format: cell-based; conditions: for cross-linking of SOD1 in cells, result in words: Hep G2 cells, increasing concentrations, compared with α-lipoic acid
T2 construct: endogenous in cells; host or cells: Hep G2
T2 sequence (P00441 2-154 limits assumed): as above
Method: Hep G2 cells were cultures in DMEM with 10% fetal bovine serum and penicillin/streptomycin in 96 well Costar® Corning CellBIND plate with 5% CO2 at 37° C. The cells were cultured to monolayer confluency. […] Stocks were diluted twenty-fold in 1×PBS (final DMSO 5%). Cells were treated with 200 uL of compound and incubated for 30 minutes at 37° C. 5% CO2. Cells were washed with 1×PBS and 20 μL of 6× nonreducing sample buffer was added to each well. The 96 well plate was heated to 90° C. for 10 minutes. Samplers were spun at 14000 RPM for 5 minutes in a Beckman Coulter Microfuge®18 centrifuge. Samples were run using a Bio Rad Mini-Protean electrophoresis chamber on 12% precast TGX polyacrylamide gels at 150V. After separation was complete, gels were extracted from the cassettes and incubated in an in-house transfer buffer for 10 minutes are 90° C. to ensure thorough transfer of protein bands and thorough binding of antibody (25 mM Tris, 192 mM glycine, 10 mM 2-mercaptoethanol, 0.1% SDS). Transfer was performed with a Bio Rad Trans-blot turbo transfer system using a trans-clot turbo transfer pack. Membranes were dried, blocked with 5% milk for 2 h at room temperature. Membranes were then probed with primary antibody, anti-SOD1 antibody SOD100 overnight at 4° C. Membranes are incubated with HRP-labeled secondary antibodies and visualized using ECL Western Blotting Substrate and imaged using the ChemiDoc MP.

[2] = with reduced glutathione; cited from earlier work
SH-SY5Y cells = format: cell-based; conditions: 24 h
Method: Human immortalized neuroblastoma cells (SH-SY5Y) were purchased from ATCC (Manassas, Virginia, USA). Cells were grown in Eagle's Minimum Essential Medium (EMEM) supplemented with 10% fetal bovine serum at 37° C. and 5% CO2 to >70% confluency. […] Following incubation with 1,2-dithaine-1-oxide, 22 μL of PrestoBlue® was added to each well and allowed to incubate for 10 min at 37° C. Excitation/emission was measured at 560/590 (in nm) using an Infinite® 200 plate reader (Tecan, Mannedorf, Switzerland). Cell viability was quantified relative to untreated cells.

C111S SOD1 = target: T3, C111S SOD1 (Homo sapiens, UniProt P00441, C112S); assay: Localization of cross-link using point mutated C111S SOD1 (LC-MS); format: biochemical; conditions: 10 μM SOD1, 100 μM compound, overnight, room temperature
T3 construct: made in house; host or cells: EGy118ΔSOD1 yeast, vector YEp-351
T3 sequence (P00441 2-154 C112S limits assumed): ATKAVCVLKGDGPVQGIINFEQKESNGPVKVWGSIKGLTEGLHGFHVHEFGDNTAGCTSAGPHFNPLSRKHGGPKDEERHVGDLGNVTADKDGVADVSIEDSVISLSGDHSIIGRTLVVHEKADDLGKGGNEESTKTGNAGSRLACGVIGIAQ
Method: Aliquots from each of the SOD1 incubations were individually diluted ten-fold with H2O containing 0.1% formic acid and analyzed using reversed phase C18 LC-MS on a Bruker HCT Ultra ion trap. The resulting data were processed using DataAnalysis 3.4 (Bruker Daltonics). Mass spectra were averaged across the retention times corresponding to when SOD1 eluted and were deconvoluted to determine the molecular weight of the uncharged species.

WT SOD1 [3] = target: T1, WT SOD1; assay: In vitro glutathione competition assay; format: biochemical
Method: Purified WT SOD1 was diluted to 10 μM in 10 mM ammonium acetate, pH 7.4. […] Samples were briefly (30 seconds) incubated at room temperature with 10% formic acid to remove metals from SOD1 prior to mass spectrometry analysis. Samples were then diluted to 1 μM SOD1 in 50:50 acetonitrile:water, 0.1% FA and analyzed by direct infusion into a Bruker Solarix XR FT-ICR mass spectrometer. The percent dimer formation was calculated by comparing the relative dimer (31,808 Da) and monomer (15,844 Da) MaxEnt deconvoluted peak heights (Dimer/(Dimer+Monomer))

WT SOD1 [4] = target: T1, WT SOD1; assay: In vitro DTT competition assay; format: biochemical; conditions: 1:1 cross-linker:DTT (equimolar), 24 h, 37° C.
Method: Purified WT SOD1 was diluted to 50 μM in 10 mM ammonium acetate, pH 7.4. […] DTT solutions were made in 100% HPLC grade H2O. DTT solution concentrations were 1 mM, 2 mM and 4 mM. Samples were left to incubate at 37° C. for 24 h. Samples were then diluted to 1 μM SOD1 in 50:50 acetonitrile:water, 0.1% FA and analyzed by direct infusion into a Bruker Solarix XR FT-ICR mass spectrometer

SOD1 in HeLa cells = target: T4, SOD1 in HeLa cells (Homo sapiens, UniProt P00441); assay: SOD1 cross-linking in HeLa cells, western blot; format: cell-based; conditions: EC50 for cross-linking of SOD1, HeLa cells
T4 construct: endogenous in cells; host or cells: HeLa
T4 sequence (P00441 2-154 limits assumed): as the sequence (P00441 2-154 limits assumed) above
Method: HeLa cells were cultured in DMEM with 10% fetal bovine serum and penicillin/streptomycin in 24 well Costar® Corning CellBIND plate with 5% CO2 at 37° C. The cells were cultured to monolayer confluency. […] The 100 mM solution diluted to various concentrations with 1×PBS solution. 1 mL of solutions was added to the HeLa cells in the 24 well plate. […] Cells were washed 2× with 1 mL PBS. After removing the second PBS wash, the cells were then treated with 6× non-reducing SDS sample buffer and collected. The collected cell lysate was divided into two parts. One half was treated with 5% β-ME, to remove bound cyclic disulfides, as negative controls. The other half was treated with equal amount of milliQ water. All the cell lysate samples were then heated at 80° C. for 10 minutes in an Eppendorf Thermomixer. The samples were spun at 14000 rpm for 5 minutes in Beckman Coulter Microfuge centrifuge. HeLa cell extracts were separated on 12% SDS-polyacrylamide TrisHCl gels run at 80 V at room temperature. Proteins were transferred to nitrocellulose membranes for Western blotting. Monomer and covalently-linked dimer SOD1 were detected using the rabbit polyclonal anti-SOD1 antibody SOD100. Membranes are incubated with HRP-labeled secondary antibodies and visualized using ECL Western Blotting Substrate and imaged using the ChemiDoc MP.

[5] = 50 μM SOD1, 20× excess compound
[6] = 10× compound and 100× reduced glutathione

With C1CCSSC1 [1,2-dithiane] the “% of SOD1 cross-linked after 10 min of incubation” value (WT SOD1 [1]; 37° C.) was 0%, the “cross-linking of SOD1, result in words” value (WT SOD1 [1]; [5]) was “slow cross-link formation” and the “% of SOD1 forming covalent dimer after three days (72 h)” value (WT SOD1 [1]; 50 μM SOD1, 20× excess compound, 37° C., 72 h) was 11%. For the same compound, the “binding to single Cys residues (free Cys111 and Cys6) of SOD1” value (WT SOD1 [1]) was “no binding to single Cys residues”.

With β-lipoic acid the “rate and extent of covalent cross-linking of SOD1 versus α-lipoic acid, in words” value (WT SOD1 [1]; mass spectrometry assay) was “Both rate and extent of covalent cross-linking of SOD1 is increased”, the “more SOD1 cross-linked in vitro compared to ALA” value (WT SOD1 [1]; mass spectrometry assay, compared to ALA) was 30% and the “cross-linking of SOD1 in cells, result in words” value (SOD1 in Hep G2 cells) was “cross-links SOD1 in Hep G2 cells, and does so more efficiently than the cyclic disulfide, α-lipoic acid”. The “cross-linking of SOD1 in cells, result in words” value (SOD1 in Hep G2 cells; listed as BLA) was “cross-linked SOD1 in cells”.

With C1CCSSCC1 [1,2-dithiepane] the “cross-linking of SOD1, result in words (FIG. 13)” value (WT SOD1 [1]) was “does not”.

In the case of [O-][S+]1CCCCCS1 (stereo not shown) [1,2-dithiepane-1-oxide], the “cross-linking of SOD1, result in words (FIG. 13)” value (WT SOD1 [1]) is reported as “rapid and complete cross-link of SOD1”.

For OC1CSSCC1O (stereo not shown) [oxidized DTT], the “extrapolated half-life of thiol-disulfide exchange” value [2] is listed as greater than 3.33 h.

In the case of [O-][S+]1CCCCS1 (stereo not shown) [1,2-dithiane-1-oxide], the “concentration at which cell viability is equivalent to untreated cells, relative to EC50” value (SH-SY5Y cells) is reported as 50 fold, the “covalent dimer formation with C111S SOD1” value (C111S SOD1) is reported as “No cross-linking was observed; also recorded: no covalent dimer formation” and the “% of SOD1 cross-linked after 10 min of incubation” value (WT SOD1 [1]; 37° C.) is reported as 95%. For the same compound, the “cross-linking of SOD1, result in words” value (WT SOD1 [1]; [5]) was “rapid and complete dithiolate cross-linking”, the “binding to single Cys residues (free Cys111 and Cys6) of SOD1” value (WT SOD1 [1]) was “no binding to single Cys residues” and the “overall second order rate constant of cross-linking product formation” value (WT SOD1 [1]; multi-concentration kinetics, protocol of Singh et al.) was 250 M⁻¹ s⁻¹. The EC50 (SOD1 in Hep G2 cells; EC50 for cross-linking of SOD1, Hep G2 cells, 30 min incubation, western blot) was ~5 µM and 1 to 5 µM, the “cross-linking of SOD1 in the presence of glutathione, result in words” value (WT SOD1 [3]; 10:1 ratio of glutathione:compound) was “proceeded to completion; also recorded: can efficiently cross-link SOD1” and the “cross-linking yield in the presence of glutathione” value (WT SOD1 [3]; [6]) was 100%. The “rate of cross-linking in the presence of glutathione” value (WT SOD1 [3]; [6]) was “decreased”, the “cross-linking of SOD1 in the presence of DTT, result in words” value (WT SOD1 [4]) was “proceeded to completion; also recorded: ability to cross-link the thiol pair of SOD1” and the EC50 (SOD1 in HeLa cells) was ~5 µM and 1 to 5 µM.

With [O-][S+]1CCCCCCS1 (stereo not shown) [1,2-dithiocane-1-oxide] the “cross-linking of SOD1, result in words (FIG. 15)” value (WT SOD1 [1]) was “rapid and complete cross-link of SOD1”.

With C1CCCSSCC1 [1,2-dithiocane] the “cross-linking of SOD1, result in words (FIG. 15)” value (WT SOD1 [1]) was “does not”.
